Assay results from PubChem BioAssay AID1259407 (Chemical Carcinogenesis Research Information System (CCRIS), 2018).
The source made the active and inactive calls. No rule for the calls is given here.

Test system: CCRIS mutagenicity, Ames/micronucleus/aberration tests
Experiment: CCRIS mutagenicity studies

O=C1NCCN1c1ncc([N+](=O)[O-])s1
mutagenic call (Test System: AMES SALMONELLA TYPHIMURIUM, Strain/Indicator: TA96(NR), Metabolic Activation: NONE, Method: STANDARD PLATE): inactive; negative | mutagenic call (Test System: AMES SALMONELLA TYPHIMURIUM, Strain/Indicator: TA96(NRB), Metabolic Activation: NONE, Method: PREINCUBATION): active; positive | mutagenic call (Test System: AMES SALMONELLA TYPHIMURIUM, Strain/Indicator: TA96(NRB), Metabolic Activation: RAT, LIVER, S-9, AROCLOR 1254, Method: PREINCUBATION): active; positive | mutagenic call (Test System: AMES SALMONELLA TYPHIMURIUM, Strain/Indicator: TA96(NRC), Metabolic Activation: NONE, Method: PREINCUBATION): inactive; negative | mutagenic call (Test System: AMES SALMONELLA TYPHIMURIUM, Strain/Indicator: TA96(NRC), Metabolic Activation: RAT, LIVER, S-9, AROCLOR 1254, Method: PREINCUBATION): inactive; negative | mutagenic call (Test System: AMES SALMONELLA TYPHIMURIUM, Strain/Indicator: TA96, Metabolic Activation: NONE, Method: PREINCUBATION): active; positive | mutagenic call (Test System: AMES SALMONELLA TYPHIMURIUM, Strain/Indicator: TA96, Metabolic Activation: NONE, Method: STANDARD PLATE): active; positive | mutagenic call (Test System: AMES SALMONELLA TYPHIMURIUM, Strain/Indicator: TA96, Metabolic Activation: RAT, LIVER, S-9, AROCLOR 1254, Method: PREINCUBATION): active; positive | mutagenic call (Test System: AMES SALMONELLA TYPHIMURIUM, Strain/Indicator: TA97, Metabolic Activation: NONE, Method: PREINCUBATION): active; positive | mutagenic call (Test System: AMES SALMONELLA TYPHIMURIUM, Strain/Indicator: TA97, Metabolic Activation: NONE, Method: STANDARD PLATE): active; positive | mutagenic call (Test System: AMES SALMONELLA TYPHIMURIUM, Strain/Indicator: TA97, Metabolic Activation: RAT, LIVER, S-9, AROCLOR 1254, Method: PREINCUBATION): active; positive | mutagenic call (Test System: AMES SALMONELLA TYPHIMURIUM, Strain/Indicator: TA98(NR), Metabolic Activation: NONE, Method: PREINCUBATION): active; positive | mutagenic call (Test System: AMES SALMONELLA TYPHIMURIUM, Strain/Indicator: TA98(NR), Metabolic Activation: NONE, Method: STANDARD PLATE): inactive; negative | mutagenic call (Test System: AMES SALMONELLA TYPHIMURIUM, Strain/Indicator: TA98(NR), Metabolic Activation: RAT, LIVER, S-9, AROCLOR 1254, Method: PREINCUBATION): active; positive | mutagenic call (Test System: AMES SALMONELLA TYPHIMURIUM, Strain/Indicator: TA98, Metabolic Activation: NONE, Method: PREINCUBATION): active; positive | mutagenic call (Test System: AMES SALMONELLA TYPHIMURIUM, Strain/Indicator: TA98, Metabolic Activation: NONE, Method: STANDARD PLATE): active; positive | mutagenic call (Test System: AMES SALMONELLA TYPHIMURIUM, Strain/Indicator: TA98, Metabolic Activation: RAT, LIVER, S-9, AROCLOR 1254, Method: PREINCUBATION): active; positive | mutagenic call (Test System: AMES SALMONELLA TYPHIMURIUM, Strain/Indicator: TA98, Metabolic Activation: RAT, LIVER, S-9, AROCLOR 1254 OR PHENOBARBITOL, Method: STANDARD PLATE): active; positive | mutagenic call (Test System: AMES SALMONELLA TYPHIMURIUM, Strain/Indicator: TA98, Metabolic Activation: RAT, LIVER, S-9, KC500 OR PHENOBARBITAL, Method: LIQUID SUSPENSION): active; positive | mutagenic call (Test System: AMES SALMONELLA TYPHIMURIUM, Strain/Indicator: TA100(NR), Metabolic Activation: NONE, Method: PREINCUBATION): active; positive | mutagenic call (Test System: AMES SALMONELLA TYPHIMURIUM, Strain/Indicator: TA100(NR), Metabolic Activation: NONE, Method: STANDARD PLATE): inactive; negative | mutagenic call (Test System: AMES SALMONELLA TYPHIMURIUM, Strain/Indicator: TA100(NR), Metabolic Activation: RAT, LIVER, S-9, AROCLOR 1254, Method: PREINCUBATION): active; positive | mutagenic call (Test System: AMES SALMONELLA TYPHIMURIUM, Strain/Indicator: TA100, Metabolic Activation: NONE, Method: PREINCUBATION): active; positive | mutagenic call (Test System: AMES SALMONELLA TYPHIMURIUM, Strain/Indicator: TA100, Metabolic Activation: RAT, LIVER, S-9, AROCLOR 1254, Method: PREINCUBATION): active; positive | mutagenic call (Test System: AMES SALMONELLA TYPHIMURIUM, Strain/Indicator: TA100, Metabolic Activation: RAT, LIVER, S-9, AROCLOR 1254 OR PHENOBARBITOL, Method: STANDARD PLATE): active; positive | mutagenic call (Test System: AMES SALMONELLA TYPHIMURIUM, Strain/Indicator: TA100, Metabolic Activation: RAT, LIVER, S-9, KC500 OR PHENOBARBITAL, Method: LIQUID SUSPENSION): active; positive | mutagenic call (Test System: AMES SALMONELLA TYPHIMURIUM, Strain/Indicator: TA102(NRD), Metabolic Activation: NONE, Method: PREINCUBATION): active; positive | mutagenic call (Test System: AMES SALMONELLA TYPHIMURIUM, Strain/Indicator: TA102(NRD), Metabolic Activation: RAT, LIVER, S-9, AROCLOR 1254, Method: PREINCUBATION): active; positive | mutagenic call (Test System: AMES SALMONELLA TYPHIMURIUM, Strain/Indicator: TA102, Metabolic Activation: NONE, Method: PREINCUBATION): active; positive | mutagenic call (Test System: AMES SALMONELLA TYPHIMURIUM, Strain/Indicator: TA102, Metabolic Activation: NONE, Method: STANDARD PLATE): active; positive | mutagenic call (Test System: AMES SALMONELLA TYPHIMURIUM, Strain/Indicator: TA102, Metabolic Activation: RAT, LIVER, S-9, AROCLOR 1254, Method: PREINCUBATION): active; positive | mutagenic call (Test System: AMES SALMONELLA TYPHIMURIUM, Strain/Indicator: TA104, Metabolic Activation: NONE, Method: STANDARD PLATE): inactive; negative | mutagenic call (Test System: AMES SALMONELLA TYPHIMURIUM, Strain/Indicator: TA1535, Metabolic Activation: NONE, Method: STANDARD PLATE): inactive; negative | mutagenic call (Test System: AMES SALMONELLA TYPHIMURIUM, Strain/Indicator: TA1535, Metabolic Activation: RAT, LIVER, S-9, AROCLOR 1254 OR PHENOBARBITOL, Method: STANDARD PLATE): inactive; negative | mutagenic call (Test System: AMES SALMONELLA TYPHIMURIUM, Strain/Indicator: TA1537, Metabolic Activation: NONE, Method: STANDARD PLATE): inactive; negative | mutagenic call (Test System: AMES SALMONELLA TYPHIMURIUM, Strain/Indicator: TA1537, Metabolic Activation: RAT, LIVER, S-9, AROCLOR 1254 OR PHENOBARBITOL, Method: STANDARD PLATE): inactive; negative | mutagenic call (Test System: AMES SALMONELLA TYPHIMURIUM, Strain/Indicator: TA1538, Metabolic Activation: NONE, Method: STANDARD PLATE): active; positive | mutagenic call (Test System: AMES SALMONELLA TYPHIMURIUM, Strain/Indicator: TA1538, Metabolic Activation: RAT, LIVER, S-9, AROCLOR 1254 OR PHENOBARBITOL, Method: STANDARD PLATE): active; positive | mutagenic call (Test System: E. COLI, Strain/Indicator: WP2, Metabolic Activation: NONE, Method: SPOT): active; positive | mutagenic call (Test System: E. COLI, Strain/Indicator: WP2 UVRA, Metabolic Activation: NONE, Method: SPOT): active; positive | mutagenic call (Test System: E. COLI, Strain/Indicator: WP2 UVRA, Metabolic Activation: NONE, Method: STANDARD PLATE): active; positive

FC(F)(Cl)C(F)(F)Cl
mutagenic call (Test System: AMES SALMONELLA TYPHIMURIUM, Strain/Indicator: TA98, Metabolic Activation: NONE, Method: GAS EXPOSURE): inactive; negative | mutagenic call (Test System: AMES SALMONELLA TYPHIMURIUM, Strain/Indicator: TA98, Metabolic Activation: RAT LIVER S-9, PHENOBARBITAL AND BETA-NAPHTHOFLAVONE (40%), Method: GAS EXPOSURE): inactive; negative | mutagenic call (Test System: AMES SALMONELLA TYPHIMURIUM, Strain/Indicator: TA100, Metabolic Activation: NONE, Method: GAS EXPOSURE): inactive; negative | mutagenic call (Test System: AMES SALMONELLA TYPHIMURIUM, Strain/Indicator: TA100, Metabolic Activation: RAT LIVER S-9, PHENOBARBITAL AND BETA-NAPHTHOFLAVONE (40%), Method: GAS EXPOSURE): inactive; negative | mutagenic call (Test System: AMES SALMONELLA TYPHIMURIUM, Strain/Indicator: TA1535, Metabolic Activation: NONE, Method: GAS EXPOSURE): inactive; negative | mutagenic call (Test System: AMES SALMONELLA TYPHIMURIUM, Strain/Indicator: TA1535, Metabolic Activation: RAT LIVER S-9, PHENOBARBITAL AND BETA-NAPHTHOFLAVONE (40%), Method: GAS EXPOSURE): inactive; negative | mutagenic call (Test System: AMES SALMONELLA TYPHIMURIUM, Strain/Indicator: TA1537, Metabolic Activation: NONE, Method: GAS EXPOSURE): inactive; negative | mutagenic call (Test System: AMES SALMONELLA TYPHIMURIUM, Strain/Indicator: TA1537, Metabolic Activation: RAT LIVER S-9, PHENOBARBITAL AND BETA-NAPHTHOFLAVONE (40%), Method: GAS EXPOSURE): inactive; negative | mutagenic call (Test System: E.COLI, Strain/Indicator: WP2UVRA, Metabolic Activation: NONE, Method: GAS EXPOSURE): inactive; negative | mutagenic call (Test System: E.COLI, Strain/Indicator: WP2UVRA, Metabolic Activation: RAT LIVER S-9, PHENOBARBITAL AND BETA-NAPHTHOFLAVONE (40%), Method: GAS EXPOSURE): inactive; negative
